Assay results published in PubChem BioAssay AID179 (DTP/NCI, 2004).
“And” between values parts separate entries of the source, which are not always exact repeats. Equal entries are not always repeated. The source made the active and inactive calls.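 The calls were made as follows: active = compounds giving half or more protection of infected cells from virus-caused growth loss, again on retest; inactive = the rest.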

Tested on: CEM cells HIV-1 protection, formazan growth assay
Test: NCI AIDS Antiviral Assay
Conditions: for IC50: measured here: growth of uninfected CEM cells
Procedure, shortened: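 Human CEM cells, uninfected and HIV-1-infected, received five drug concentrations, and growth was read by soluble formazan assay. Compounds giving at least 50% protection were retested; reproducible 100% protection defined confirmed active.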

Q: With `O=C1NC(=O)[C@@H](OCC2CCCCC2)[C@@H]2OCC3OC(C(O)C3O)C12` (stereo partly drawn) as the compound, how does the EC50 read?
A: The EC50 was over 200 µM.

Q: And the IC50?
A: Its IC50 is over 200 µM.

Q: Which outcome does the source give for `Cc1ccc(S(=O)(=O)Nc2cccc(C)c2C)cc1` here?
A: Its outcome is “inactive”.

Q: Which EC50 does the source give for `O=C(O)CCC(=O)c1ccc2oc3ccccc3c2c1` here?
A: Its EC50 is over 200 µM.

Q: What about the IC50 of the same compound?
A: The IC50 was over 200 µM.

Q: With `C=CCOCn1ccc(=O)[nH]c1=O` as the compound, how does the EC50 read?
A: The EC50 was over 200 µM.

Q: What about the IC50 of the same compound?
A: The IC50 was over 200 µM.

Q: For `OC(C#CCN1CCCC1)(c1ccccc1)c1ccc(Br)cc1.[C-]#[O+].[C-]#[O+].[C-]#[O+].[C-]#[O+].[C-]#[O+].[C-]#[O+].[Co].[Co]` (stereo not drawn), which EC50 is on record?
A: The EC50 was over 200 µM.

Q: And the IC50?
A: The IC50 was 7.08 µM.

Q: Which results are given for `C[Si](C)(C)c1ccc(-c2sc(-c3ccc([Si](C)(C)C)s3)c3c2C[Si]2(C3)Cc3c(-c4ccc([Si](C)(C)C)s4)sc(-c4ccc([Si](C)(C)C)s4)c3C2)s1`?
A: EC50: > 5.75 µM; IC50: > 5.75 µM

Q: Which results are given for `BrC1=C(Br)C2(SCCS2)[C@H]2C[C@@H]1c1ccccc12`?
A: EC50: > 200 µM; IC50: 8.71 µM

Q: `NC(CCc1ncc(C(=O)O)s1)C(=O)O` (stereo not drawn) was tested. Which outcome did it give?
A: Its outcome is “inactive”.

Q: Which outcome does the source give for `CC(=Nc1cccc(Cl)c1)c1ccncc1` here?
A: The outcome was “inactive”.

Q: Which EC50 does the source give for `COC(=O)C(Cc1nc2ccccc2[nH]c1=O)C(NO)C(=O)Nc1c(Cl)cc([N+](=O)[O-])cc1Cl` (stereo not drawn) here?
A: The EC50 was over 51.3 µM.

Q: And the IC50?
A: Its IC50 is over 51.3 µM.

Q: Which EC50 does the source give for `COc1ccc(C[C@H](N)C(=O)NC2C(CO)OC(n3cnc4c(N(C)C)ncnc43)C2O)cc1` (stereo partly drawn) here?
A: The EC50 was over 200 µM.

Q: What about the IC50 of the same compound?
A: The IC50 was 0.117 µM.

Q: With `CCOC(=O)c1ccc(N2N=C3C(=CC(=O)c4ccccc43)SCC2=O)cc1` as the compound, how does the EC50 read?
A: Its EC50 is over 47.9 µM.

Q: What about the IC50 of the same compound?
A: Its IC50 is 19.5 µM.

Q: With `CC[C@@H]1NC(C(=O)OC)Cc2c1[nH]c1ccccc21` (stereo partly drawn) as the compound, how does the outcome read?
A: The outcome was “inactive”.

Q: Which results are given for `O=Nn1ccccc1=Nc1ccccc1`?
A: EC50: > 200 µM; IC50: 117 µM

Q: For `CCOC(=N)N1CCCCC1`, which EC50 is on record?
A: The EC50 was over 200 µM.

Q: What about the IC50 of the same compound?
A: The IC50 was over 200 µM.

Q: What does the source list for `CSCCCNC(=O)c1csc(-c2csc(CCNC(=O)CNC(=O)CNC(=O)CNC(=O)OC(C)(C)C)n2)n1`?
A: EC50: > 407 µM; IC50: > 407 µM

Q: With `N=S(c1ccccc1[N+](=O)[O-])c1ccccc1[N+](=O)[O-]` as the compound, how does the EC50 read?
A: Its EC50 is over 200 µM.

Q: And the IC50?
A: Its IC50 is 0.631 µM and 0.589 µM.

Q: Which outcome does the source give for `O=C(O)CN(c1ccccc1)S(=O)(=O)c1ccc([N+](=O)[O-])cc1` here?
A: The outcome was “inactive”.

Q: Which EC50 does the source give for `Cc1ccc(NC(=O)CC/C(CC(=O)C(C)(C)C)=N/NC(=O)C(N)=O)cc1C` here?
A: Its EC50 is over 324 µM.

Q: And the IC50?
A: The IC50 was over 324 µM.

Q: How did the EC50 turn out when `CC(=O)OCC1CCC(=C2C(=O)OC(C)(C)OC2=O)N1` (stereo not drawn) was run?
A: The EC50 was over 200 µM.

Q: What about the IC50 of the same compound?
A: The IC50 was over 200 µM.

Q: With `CCSc1ccc([N+](=O)[O-])c2c(SCC)c3ccccc3nc12` as the compound, how does the outcome read?
A: The outcome was “inactive”.

Q: What does the source list for `S=c1s[nH]c2c1CCC2`?
A: EC50: > 107 µM; IC50: 77.6 µM

Q: Which results are given for `C1=CC2CC1C1C(=C3Sc4ccccc4S3)c3nccnc3C(=C3Sc4ccccc4S3)C21` (stereo not drawn)?
A: EC50: > 14.5 µM; IC50: > 14.5 µM

Q: `CC(=O)CN=C(C)NNc1ccc([N+](=O)[O-])cc1[N+](=O)[O-]` was tested. Which EC50 did it give?
A: Its EC50 is over 200 µM.

Q: And the IC50?
A: Its IC50 is 60.3 µM.

Q: With `Cc1nn(C)c2nc(=O)n(C)c(=O)c-2[n+]1[O-]` as the compound, how does the EC50 read?
A: Its EC50 is over 200 µM.

Q: And the IC50?
A: The IC50 was 26.9 µM.

Q: How did the outcome turn out when `COc1cc(CN(C)N2C(=O)c3cccc4cc([N+](=O)[O-])cc(c34)C2=O)cc(OC)c1OC` was run?
A: Its outcome is “inactive”.

Q: Which results are given for `CC(=O)OCC(OC(C)=O)C(OC(C)=O)C1OC(Oc2ccccc2)C(OC(C)=O)C1OC(C)=O` (stereo not drawn)?
A: EC50: > 200 µM; IC50: > 200 µM

Q: What does the source list for `Cc1n[nH]c(=O)n1/N=C/c1ccc([N+](=O)[O-])cc1`?
A: EC50: > 200 µM; IC50: > 100 µM

Q: `CCN(C(=O)c1ccccc1C)C(c1ccccc1)P(=O)(c1ccccc1)c1ccccc1` (stereo not drawn) was tested. Which outcome did it give?
A: Its outcome is “inactive”.

Q: Which EC50 does the source give for `CC12Cc3ccccc3CC1OCN1CN2COC2Cc3ccccc3CC21C` (stereo not drawn) here?
A: Its EC50 is over 13.2 µM.

Q: And the IC50?
A: The IC50 was over 13.2 µM.

Q: What does the source list for `Cn1c(=O)c2[nH]cnc2n(CC(=O)O)c1=O`?
A: EC50: > 1120 µM; IC50: > 1120 µM

Q: What does the source list for `O=C1CC(CC(=O)c2ccc(Br)cc2)C(=O)/C1=C(/O)c1ccc(Br)cc1` (stereo not drawn)?
A: EC50: > 200 µM; IC50: 41.7 µM

Q: Which results are given for `COc1cccc(-c2nc(-c3cnccn3)n(C3OC(CO)C(O)C3O)n2)c1` (stereo not drawn)?
A: EC50: > 200 µM; IC50: > 200 µM

Q: How did the EC50 turn out when `COc1ccccc1C(=O)OCC1CCCN2CCCCC12` (stereo not drawn) was run?
A: Its EC50 is over 200 µM.

Q: And the IC50?
A: Its IC50 is 27.5 µM.

Q: For `O=C(Cc1ccccc1C(=O)O)c1ccccc1`, which EC50 is on record?
A: Its EC50 is over 200 µM.

Q: What about the IC50 of the same compound?
A: Its IC50 is over 200 µM.

Q: With `c1ccc(N=c2nc(Nc3ccccc3)ss2)cc1` as the compound, how does the EC50 read?
A: Its EC50 is over 200 µM.

Q: What about the IC50 of the same compound?
A: Its IC50 is 30.9 µM.

Q: For `O=C1/C(=C/c2ccc([N+](=O)[O-])cc2)C(=O)N(c2ccccc2)C1c1ccccc1` (stereo not drawn), which EC50 is on record?
A: The EC50 was over 74.1 µM.

Q: What about the IC50 of the same compound?
A: The IC50 was 41.7 µM.

Q: `COc1ccc2[nH]c3c(c2c1)[C@H](C)C[C@@H]1C(=O)N(c2ccccc2)C(=O)[C@H]31` was tested. Which outcome did it give?
A: Its outcome is “inactive”.

Q: Which results are given for `CC(C)N(C(=O)C12C3C4C5(C#N)C3C1(C#N)C5C42C#N)C(C)C` (stereo not drawn)?
A: EC50: > 32.4 µM; IC50: > 32.4 µM

Q: What does the source list for `C=C(C)[C@@H]1CCC2=C[C@@H](OC2=O)[C@@H](C(=C)C)C2=CC(C(=O)O)=C(C1)O2`?
A: EC50: > 200 µM; IC50: 91.2 µM

Q: With `CC1SC2=NC3=C(c4ccccc4C3=O)C(c3ccc(F)cc3)N2C1=O` (stereo not drawn) as the compound, how does the EC50 read?
A: Its EC50 is over 37.2 µM.

Q: And the IC50?
A: Its IC50 is over 37.2 µM.

Q: How did the EC50 turn out when `NC1=NN(O)C2=CC([N+](=O)[O-])C=CC2=N1` (stereo not drawn) was run?
A: Its EC50 is over 25.1 µM.

Q: What about the IC50 of the same compound?
A: The IC50 was 20.4 µM.

Q: How did the outcome turn out when `CCOC(=O)C1=C(NC)OCC1=O` was run?
A: The outcome was “inactive”.

Q: What does the source list for `C/C=C/C=Nc1c(C#N)c2n(c1C(=O)Nc1ccc(Cl)cc1)CCC2`?
A: EC50: > 50.1 µM; IC50: 23.4 µM
